Values quoted from earlier work as cited in US20090192135A1, “Human Niemann Pick C1-Like 1 Gene (NPC1L1) Polymorphisms and Methods of Use Thereof” (SCHERING CORPORATION, priority 2005, published 2009).

Biological target: T1, NPC1L1 (Homo sapiens, UniProt Q9UHC9)
T1 construct: from tissue; host or cells: small intestine of hypercholesterolemic patients (in vivo, clinical trial)
T1 sequence (Q9UHC9 22-1332 isoform Q9UHC9-2 limits assumed): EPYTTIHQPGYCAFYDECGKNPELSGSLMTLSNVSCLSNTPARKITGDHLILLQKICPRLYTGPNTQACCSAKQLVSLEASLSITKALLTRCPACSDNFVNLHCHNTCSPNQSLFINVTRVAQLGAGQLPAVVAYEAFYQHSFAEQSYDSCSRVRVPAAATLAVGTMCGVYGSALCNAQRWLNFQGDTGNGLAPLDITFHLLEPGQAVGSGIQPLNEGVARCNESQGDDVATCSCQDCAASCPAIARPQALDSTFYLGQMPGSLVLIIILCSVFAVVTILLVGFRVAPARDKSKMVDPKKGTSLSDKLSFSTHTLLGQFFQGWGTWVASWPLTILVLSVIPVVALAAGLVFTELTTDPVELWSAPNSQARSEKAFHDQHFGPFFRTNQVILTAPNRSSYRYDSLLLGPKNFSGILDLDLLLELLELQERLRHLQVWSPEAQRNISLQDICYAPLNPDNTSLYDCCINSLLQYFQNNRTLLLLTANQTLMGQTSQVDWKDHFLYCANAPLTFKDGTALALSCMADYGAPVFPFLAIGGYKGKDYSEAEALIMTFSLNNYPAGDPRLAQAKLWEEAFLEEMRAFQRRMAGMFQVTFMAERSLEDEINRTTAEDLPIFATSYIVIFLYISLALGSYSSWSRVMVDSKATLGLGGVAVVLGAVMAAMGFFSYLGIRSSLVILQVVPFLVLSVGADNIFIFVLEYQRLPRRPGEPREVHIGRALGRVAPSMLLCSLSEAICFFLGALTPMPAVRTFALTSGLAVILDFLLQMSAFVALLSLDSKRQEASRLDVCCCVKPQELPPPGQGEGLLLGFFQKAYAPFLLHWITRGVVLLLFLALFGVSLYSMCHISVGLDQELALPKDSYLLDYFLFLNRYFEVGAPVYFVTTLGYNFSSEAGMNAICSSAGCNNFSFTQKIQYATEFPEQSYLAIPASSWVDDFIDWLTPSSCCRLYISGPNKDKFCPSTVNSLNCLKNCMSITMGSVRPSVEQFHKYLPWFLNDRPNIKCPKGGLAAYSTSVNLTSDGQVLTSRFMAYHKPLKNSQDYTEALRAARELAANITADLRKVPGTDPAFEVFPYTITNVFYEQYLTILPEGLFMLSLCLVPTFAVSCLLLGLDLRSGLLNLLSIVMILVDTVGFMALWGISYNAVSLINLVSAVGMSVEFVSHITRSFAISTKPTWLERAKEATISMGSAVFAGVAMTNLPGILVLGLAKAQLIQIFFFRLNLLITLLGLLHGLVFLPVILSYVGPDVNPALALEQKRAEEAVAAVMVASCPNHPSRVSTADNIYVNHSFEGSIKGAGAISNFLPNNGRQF
Settings: cited from earlier work

Compound: O=C1[C@H](CC[C@H](O)c2ccc(F)cc2)[C@@H](c2ccc(O)cc2)N1c1ccc(F)cc1 [ezetimibe, 1-(4-fluorophenyl)-3(R)-[3-(4-fluorophenyl)-3(S)-hydroxypropyl]-4(S)-(4-hydroxyphenyl)-2-azetidinone]
- additional LDL-C reduction compared with addition of placebo (added to ongoing statin therapy, stable dose of statins, EASE): ~23%
- reduction in LDL-C (ezetimibe group of EASE trial (placebo 2.7%, p<0.001)): 25.8%
